# Assay results reported in patent US11649220B2 (DEMOTECH.INC., priority 2018, dated 2023).
# How the values were obtained:
# [1] = system: Malondialdehyde (MDA) in serum; assay: In vivo anti-lipid oxidation experiment (serum MDA, TBA method); parameters: inhibition rate %: concentration or dose not given beside the values; settings: MAD lipid peroxidation in vivo; for inhibition rate %: relative to solvent DMSO and Chow averages; for avarage value of OD: serum, TBA method, 532 nm
# From the text: Experimental principle: Malondialdehyde (MDA) in liposome degradation products could condense with thiobarbituric acid (TBA) to form a red product which has a maximum absorption peak at 532 nm. The spectrophotometer was used to measure the relative absorption value to calculate the antioxidant value.
# Reagents: Malondialdehyde (MDA) test kit (article number: A003-1, […], Nanjing Jiancheng), glacial acetic acid of analytically pure grade.
# Reagent preparations: 1) Reagent I: Reagent 1 in the kit was taken out from the refrigerator and subjected to natural warming until a transparent liquid is obtained; 2) Reagent II: 170 mL of double-distilled water was added to each bottle and mixed; 3) Reagent III: A dry powder in the kit was dissolved in 60 mL of double-distilled water at 90 to 100° C. After the dry powder was dissolved totally, 30 mL of glacial acetic acid was added and kept in dark place; 4) Standard: 10 nmol/mL tetraethoxypropane.
# Experimental procedures: 1) Blank tube: To 2 mL centrifuge tube were added anhydrous ethanol (70 μl), Reagent I (70 μl), Reagent II (0.8 mL) and Reagent III (0.8 mL) in sequence; 2) Standard tube: To 2 mL centrifuge tube were added standard (70 μl), Reagent I (70 μl), Reagent 11 (0.8 mL) and Reagent III (0.8 mL) in sequence; 3) Measuring tube: To 2 mL centrifuge tube were added the serum to be tested and physiological saline (the total volume of serum and physiological saline is 70 μl), Reagent I (70 μl), Reagent II (0.8 mL) and Reagent III (0.8 mL) in sequence; 4) Control tubes: all samples are set up with corresponding control tubes. To a 2 mL centrifuge tube were added the serum to be tested and physiological saline (the total volume of serum and physiological saline is 70 μl), Reagent I (70 μl), Reagent II (0.8 mL) and 50% glacial acetic acid (0.8 mL) in sequence.
# After the above reagents were added, the mixture was mixed homogenously. Then the mixture was left in the water bath at 95° C. for 60 minutes. The sample was centrifuged at 4000 rpm for 10 minutes. The supernatant was taken for the measurement of the OD value.
# Experimental data processing: the MDA content in serum was calculated as follows: MDA=(OD valuemeasured−OD valuecontrol)/OD valuestandard*concentration of the standard Inhibition rate %=100−(ODsample-average value−average value of Chow)/(average value of the solvent DMSO−average value of Chow)*100
# [2] = In vitro free radical inhibition test (DPPH method); settings: 8 μL of 20 mmol/L compound in 1 mL DPPH 0.059 mg/mL ethanol, 60 min dark, 517 nm; for inhibition rate %: DPPH; for Relative inhibition ability on free radicals: inhibition rate of AGI1067 on DPPH defined as 100
# From the text: 1. In Vitro Free Radical Inhibition Test (DPPH Method)
# The single electron of DPPH radical has a strong absorption at […], and its alcohol solution is purple. In the presence of a free radical scavenger, the absorption of DPPH radical is weakened or disappeared for the reason that the free radical scavenger is paired with the single electron of DPPH radical, and the degree of discoloration is quantitatively related to the number of electrons DPPH radical receives. Therefore, a spectrophotometer can be used to quickly and quantitatively analyze the free radical scavenging rate of the compound.
# 1) 1 mL solution of DPPH in absolute ethanol (concentration: 0.059 mg/mL) was taken; 2) 8 μL of the compound to be tested (20 mmol/L) were added; 3) after mixing well, the resultant was kept in dark at room temperature for 60 minutes, 4) the absorbance of the sample at 517 nm was measured.
# [3] = system: golden hamsters (60% high-fat food, STZ induced); assay: Golden hamster disease model, animal model induction group (16-week-old group): blood biochemical indexes and body weight; type: in vivo
# Procedure: Animals and feed: 1) 8-week-old male golden hamsters with a body weight range of 100±5 g were selected; 2) 60% high-fat food; 3) 30% high-fat food; 4) general feed: NRC standard feed, containing 5% fat, total calories 4200 kcal/kg.
# Animal model induction group (16-week-old group): 1) fed with 60% high-fat food for 2 weeks under standard environment; 2) STZ intraperitoneal injection twice every two days, 50 mg/kg each time; 3) After STZ induction, the golden hamsters were continuous fed for 1 week; 4) Blood was taken from the ocular venous plexus, and the initial body weight, blood glucose, total cholesterol, LDL-c, HDL-c and triglyceride were measured, and the golden hamsters were grouped in parallel according to animal biochemical indicators, 8 in each group; 5) Gavage of compounds: 0.1 mL of solution of compound (concentration: 6.8 mg/mL, DMSO solution) and 0.25 mL of whole milk were mixed evenly and administrated by gavage once a day for 2 weeks; 6) Blank control: 0.1 mL of DMSO and 0.25 mL of whole milk were mixed evenly and administrated by gavage once a day for 2 weeks; 7) Observation time: 14 days later, blood was taken from the ocular venous plexus, and the body weight, blood glucose, total cholesterol, LDL-c, HDL-c and triglyceride were measured.
# Instruments: Shimadzu UV-1750 spectrophotometer, clinical determination kit (Changchun Huili Biotechnology Co., Ltd.)
# Determination of blood glucose: glucose oxidase method, kit
# Determination of total cholesterol (COD-PAP method), kit
# Determination of low density lipoprotein cholesterol (direct method), kit
# Determination of triglyceride (GP-PAP method)
# Determination of high density lipoprotein (direct method), kit
# [4] = after gavage once a day for 2 weeks
# [5] = change rate, gavage once a day for 2 weeks
Structure (SMILES),inhibition rate % [1] [%],avarage value of OD [1],inhibition rate % [2] [%],Relative inhibition ability on free radicals [2],other results
"COC(=O)CSC(C)(C)Sc1cc(C(C)(C)C)c(O)c(C(C)(C)C)c1 [Compound 1, methyl 2-((2-((3,5-di-tert-butyl-4-hydroxyphenyl)thio)propan-2-yl)thio)acetate]",54.1,7.20,,,
"CC(C)(SCC(=O)O)Sc1cc(C(C)(C)C)c(O)c(C(C)(C)C)c1 [Compound 2, 2-((2-((3,5-di-tert-butyl-4-hydroxyphenyl)thio)propan-2-yl)thio)acetic acid]",73.5,6.45,27.1,62.1,
"CCOC(=O)CCSC(C)(C)Sc1cc(C(C)(C)C)c(O)c(C(C)(C)C)c1 [Compound 3, ethyl 3-((2-((3,5-di-tert-butyl-4-hydroxyphenyl)thio)propan-2-yl)thio)propionate]",34.9,7.94,43.7,100.2,
"CC(C)(SCCC(=O)O)Sc1cc(C(C)(C)C)c(O)c(C(C)(C)C)c1 [Compound 4, 3-((2-((3,5-di-tert-butyl-4-hydroxyphenyl)thio)propan-2-yl)thio)propanoic acid]",84.4,6.03,24.1,55.2,
"CC(C)(C)c1cc(SSc2cc(C(C)(C)C)c(O)c(C(C)(C)CCO)c2)cc(C(C)(C)C)c1O [Compound 6, 2,6-di-tert-butyl-4-((3-(tert-butyl)-4-hydroxy-5-(4-hydroxy-2-methylbutan-2-yl)phenyl)disulfanediyl)phenol]",71.2,6.54,53.2,95.2,
"COc1cc(SC(C)(C)Sc2ccc(O)c(OC)c2)ccc1O [Compound 7, 4,4′-(propane-2,2-diylbis(thio))bis(2-methoxyphenol)]",47.6,7.45,73.9,169.4,
"CC(C)(Sc1cc(C(C)(C)C)c(O)c(C(C)(C)CCO)c1)Sc1cc(C(C)(C)C)c(O)c(C(C)(C)CCO)c1 [Compound 9, 4,4′-(propane-2,2-diylbis(thio))bis(2-(tert-butyl)-6-(4-hydroxy-2-methylbutan-2-yl)phenol)]",62.9,6.86,55.1,126.3,
"CC(C)(Sc1cc(C(C)(C)C)c(O)c(C(C)(C)C)c1)Sc1cc(C(C)(C)C)c2c(c1)C(C)(C)CCO2 [Compound 10, 2,6-di-tert-butyl-4-((2-((8-(tert-butyl)-4,4-dimethylchroman-6-yl)thio)propan-2-yl)thio)phenol]",47.6,7.45,41.1,94.1,
"CC(=O)OCCC(C)(C)c1cc(SC(C)(C)Sc2cc(C(C)(C)C)c(O)c(C(C)(C)C)c2)cc(C(C)(C)C)c1O [Compound 14, 3-(3-(tert-butyl)-5-((2-((3,5-di-tert-butyl-4-hydroxyphenyl)thio)propan-2-yl)thio)-2-hydroxyphenyl)-3-methylbutyl acetate]",55.9,7.13,37.3,85.5,
"CC(C)(Sc1cc(C(C)(C)C)c(O)c(C(C)(C)C)c1)Sc1cc(C(C)(C)C)c(O)c(C(C)(C)CCOC(=O)[C@H](c2ccccc2Cl)N2CCc3sccc3C2)c1 [Compound 15, (S)-3-(3-(tert-butyl)-5-((2-((3,5-di-tert-butyl-4-hydroxyphenyl)thio)propan-2-yl)thio)-2-hydroxyphenyl)-3-methylbutyl 2-(2-chlorophenyl)-2-(6,7-dihydrothieno[3,2-c]pyridin-5(4H)-yl)acetate]",50.5,7.34,19.1,43.8,
"CC(C)(Sc1cc(C(C)(C)C)c(O)c(C(C)(C)C)c1)Sc1cc(C(C)(C)C)c(O)c(C(C)(C)CCN)c1 [Compound 16, 2-(4-amino-2-methylbutan-2-yl)-6-(tert-butyl)-4-((2-((3,5-di-tert-butyl-4-hydroxyphenyl)thio)propan-2-yl)thio)phenol]",25.0,8.32,91.8,210.4,
"CCN(CC)CCOCCC(C)(C)c1cc(SC(C)(C)Sc2cc(C(C)(C)C)c(O)c(C(C)(C)C)c2)cc(C(C)(C)C)c1O [Compound 17, 2,6-di-tert-butyl-4-((2-((3-(tert-butyl)-5-(4-(2-(diethylamino)ethoxy)-2-methylbutan-2-yl)-4-hydroxyphenyl)thio)propan-2-yl)thio)phenol]",74.0,6.43,27.8,63.7,
"CC(C)(Sc1cc(C(C)(C)C)c(O)c(C(C)(C)C)c1)Sc1cc(C(C)(C)C)c(O)c(C(C)(C)CCOCCN2CCOCC2)c1 [Compound 18, 2,6-di-tert-butyl-4-((2-((3-(tert-butyl)-4-hydroxy-5-(2-methyl-4-(2-morpholinoethoxy)butan-2-yl)phenyl)thio)propan-2-yl)thio)phenol]",53.8,7.21,23.5,53.8,
"CC(C)(Sc1cc(C(C)(C)C)c(O)c(C(C)(C)C)c1)Sc1cc(C(C)(C)C)c(O)c(C(C)(C)CCOC(=O)CN)c1 [Compound 19, 3-(3-(tert-butyl)-5-((2-((3,5-di-tert-butyl-4-hydroxyphenyl)thio)propan-2-yl)thio)-2-hydroxyphenyl)-3-methylbutyl glycinate]",27.9,8.21,32.1,42.6,
"CC(C)(Sc1cc(C(C)(C)C)c(O)c(C(C)(C)C)c1)Sc1cc(C(C)(C)C)c(O)c(C(C)(C)C)c1 [Compound 30, probucol, reference compound]",53.3,7.23,,,"change rate of blood glucose % ([3]; 0.1 mL of 6.8 mg/mL DMSO solution + 0.25 mL whole milk by gavage once a day for 2 weeks): −1.5%; change rate of body weight after deduction of DMSO blank % ([3]; DMSO blank deducted): −4.1%; average body weight after administration/g [3, 4]: 141.3 g; change of body weight/g [3, 4]: 7.6 g; change rate of body weight % [3, 4]: 5.7%; HDL % [3, 5]: 63.3%; LDL % [3, 5]: −12.2%; total cholesterol % [3, 5]: 8.7%; triglyceride % [3, 5]: −6.5%"
